Source: patent US9296725B2, “Heterocyclyl pyrimidine analogues as TYK2 inhibitors” (Cellzome Limited, priority 2012, dated 2016)
Read-outs that look alike come from different tables or passages of the source.

Key:
[1] = target: T1, JAK2 (Homo sapiens, UniProt O60674); assay: Kinobeads assay, JAK2 (competition binding in mixed Molt4/Ramos cell lysate, dot blot detection); details: read-out: JAK2 Band (Kinobeads assay potency, IC50)
T1 construct: endogenous in cells; host or cells: Molt4 (ATCC CRL-1582) and Ramos (ATCC CRL-1596), mixed lysate 1:2
T1 sequence (O60674 whole entry): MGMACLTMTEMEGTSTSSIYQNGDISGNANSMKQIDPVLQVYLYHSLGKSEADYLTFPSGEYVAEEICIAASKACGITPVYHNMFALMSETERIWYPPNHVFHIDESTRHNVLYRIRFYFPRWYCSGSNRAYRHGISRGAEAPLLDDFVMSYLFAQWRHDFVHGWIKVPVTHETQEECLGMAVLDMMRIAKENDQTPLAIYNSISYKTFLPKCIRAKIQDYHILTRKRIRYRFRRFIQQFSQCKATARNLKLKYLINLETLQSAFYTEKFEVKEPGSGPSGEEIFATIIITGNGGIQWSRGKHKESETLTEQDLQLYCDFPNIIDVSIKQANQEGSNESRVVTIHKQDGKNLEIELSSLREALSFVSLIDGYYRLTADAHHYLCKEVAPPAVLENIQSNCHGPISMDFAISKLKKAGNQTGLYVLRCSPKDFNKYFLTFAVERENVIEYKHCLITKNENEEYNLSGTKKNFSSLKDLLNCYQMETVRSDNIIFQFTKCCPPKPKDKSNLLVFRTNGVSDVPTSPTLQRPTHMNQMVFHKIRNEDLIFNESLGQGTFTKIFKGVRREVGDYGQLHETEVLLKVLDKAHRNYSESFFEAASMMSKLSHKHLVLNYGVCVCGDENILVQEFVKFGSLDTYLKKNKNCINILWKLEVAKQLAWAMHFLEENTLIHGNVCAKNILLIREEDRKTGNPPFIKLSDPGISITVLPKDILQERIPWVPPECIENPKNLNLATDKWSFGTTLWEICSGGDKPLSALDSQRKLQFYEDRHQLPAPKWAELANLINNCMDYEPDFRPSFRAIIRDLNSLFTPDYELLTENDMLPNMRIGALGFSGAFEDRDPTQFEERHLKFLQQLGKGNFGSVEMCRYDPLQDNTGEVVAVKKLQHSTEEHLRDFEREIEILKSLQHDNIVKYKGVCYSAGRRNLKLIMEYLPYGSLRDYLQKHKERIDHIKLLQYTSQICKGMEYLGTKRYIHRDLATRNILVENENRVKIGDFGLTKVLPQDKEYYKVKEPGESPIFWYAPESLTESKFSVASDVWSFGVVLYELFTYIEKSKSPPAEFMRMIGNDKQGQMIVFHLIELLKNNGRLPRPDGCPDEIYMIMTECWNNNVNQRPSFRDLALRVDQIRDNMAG
Method in brief: (§1)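 JAK2 and TYK2 retained on Kinobeads (immobilized aminopyrido-pyrimidine ligand) from 1:2 Molt4:Ramos lysate (10 mg/mL) were quantified by antibody dot blot (Odyssey infrared) after 3 h cold incubation with compound. Nine-step 1:3 dilution series; IC50 calculated from curves.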

[2] = target: T2, TYK2 (Homo sapiens, UniProt P29597); assay: Kinobeads assay, TYK2 (competition binding in mixed Molt4/Ramos cell lysate, dot blot detection)
T2 construct: endogenous in cells; host or cells: Molt4 (ATCC CRL-1582) and Ramos (ATCC CRL-1596), mixed lysate 1:2
T2 sequence (P29597 whole entry): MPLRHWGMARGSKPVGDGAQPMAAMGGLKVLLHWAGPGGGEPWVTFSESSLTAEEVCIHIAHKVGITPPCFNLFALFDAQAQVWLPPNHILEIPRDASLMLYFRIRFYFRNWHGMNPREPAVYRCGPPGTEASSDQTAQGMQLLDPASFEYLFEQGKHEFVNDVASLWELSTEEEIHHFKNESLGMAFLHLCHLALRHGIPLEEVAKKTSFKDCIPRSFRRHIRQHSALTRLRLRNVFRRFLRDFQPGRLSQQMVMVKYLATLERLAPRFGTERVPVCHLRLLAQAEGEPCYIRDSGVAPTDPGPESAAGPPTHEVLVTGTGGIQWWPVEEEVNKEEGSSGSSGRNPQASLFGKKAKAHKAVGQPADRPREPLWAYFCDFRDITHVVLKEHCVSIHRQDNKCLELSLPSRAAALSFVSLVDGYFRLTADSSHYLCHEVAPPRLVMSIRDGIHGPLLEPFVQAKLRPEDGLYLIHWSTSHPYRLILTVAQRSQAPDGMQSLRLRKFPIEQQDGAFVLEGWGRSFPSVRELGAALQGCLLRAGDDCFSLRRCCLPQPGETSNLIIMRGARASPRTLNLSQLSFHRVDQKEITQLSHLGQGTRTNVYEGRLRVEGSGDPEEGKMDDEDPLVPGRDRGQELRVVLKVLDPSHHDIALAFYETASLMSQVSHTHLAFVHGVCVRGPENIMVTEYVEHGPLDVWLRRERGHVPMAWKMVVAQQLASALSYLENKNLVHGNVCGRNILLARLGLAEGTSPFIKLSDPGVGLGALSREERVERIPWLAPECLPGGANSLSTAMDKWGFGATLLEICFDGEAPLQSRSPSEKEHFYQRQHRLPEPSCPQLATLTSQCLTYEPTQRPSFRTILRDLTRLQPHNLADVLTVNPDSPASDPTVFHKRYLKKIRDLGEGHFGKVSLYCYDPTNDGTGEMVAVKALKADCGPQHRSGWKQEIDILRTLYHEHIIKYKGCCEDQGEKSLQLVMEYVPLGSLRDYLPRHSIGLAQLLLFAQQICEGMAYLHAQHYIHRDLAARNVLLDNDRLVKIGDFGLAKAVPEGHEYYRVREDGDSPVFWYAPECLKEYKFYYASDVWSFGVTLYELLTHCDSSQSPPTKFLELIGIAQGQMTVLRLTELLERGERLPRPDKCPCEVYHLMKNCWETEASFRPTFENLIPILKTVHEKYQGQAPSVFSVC
Method in brief: as §1

[3] = Kinobeads assay, Molt4/Ramos lysate, read-out: TYK2 Band (Kinobeads assay potency, IC50)

Compound	IC50 [1] [µM]	IC50 [2, 3] [µM]	IC50 ([2]; read-out: TYK2 IC50) [µM]
Cc1cnc(Nc2cnn(C)c2)nc1NCc1c(F)cc(S(N)(=O)=O)cc1F [Example I-43]	0.1 to 1	0.01 to 0.1	
C[C@H]1COCCN1C(=O)Cn1cc(Nc2ncc(F)c(NCc3c(F)cc(F)cc3F)n2)cn1 [Example I-73]	1 to 10	≤ 0.01	
CS(=O)(=O)NCc1cccc(CNc2nc(Nc3cnn(CC(=O)N4CCC[C@H]4C#N)c3)ncc2Cl)c1 [Example I-400]	1 to 10	0.1 to 1	
Cc1cnc(Nc2cnn(C)c2)nc1NCc1c(F)cc(F)cc1F [Example I-301]	1 to 10	0.01 to 0.1	
CCNC(=O)Cn1cc(Nc2nccc(NCc3c(F)cc(F)cc3F)n2)cn1 [Example I-6, N-ethyl-2-(4-((4-((2,4,6-trifluorobenzyl)amino)pyrimidin-2-yl)amino)-1H-pyrazol-1-yl)acetamide]	1 to 10	0.01 to 0.1	
O=C(Cn1cc(Nc2nccc(NCc3c(F)cc(F)cc3F)n2)cn1)N[C@H]1CCOC1 [Example I-138]	1 to 10	0.01 to 0.1	
Cn1ncnc1Cn1cc(Nc2ncc(Cl)c(NCc3ccccc3)n2)cn1 [Example I-250]	1 to 10	1 to 10	
Cc1cnc(Nc2cnn(CC(=O)N(C)C)c2)nc1NCc1c(F)ccc(F)c1F [Example I-422]	0.1 to 1	≤ 0.01	
Cn1cc(Nc2ncc(F)c(NCc3c(F)c(F)cc(F)c3F)n2)cn1 [Example I-462]	1 to 10	0.1 to 1	
CS(=O)(=O)c1cccc(CNc2nc(Nc3cnn(CC(=O)NCCO)c3)ncc2Cl)c1 [Example I-441]	1 to 10	0.1 to 1	
CC(C)NC(=O)Cn1cc(Nc2ncc(F)c(NCc3cccc(OC(F)F)c3)n2)cn1 [Example I-45]	> 10	0.01 to 0.1	
O=C(Cn1cc(Nc2nccc(NCc3c(F)cccc3Cl)n2)cn1)N1CCOCC1 [Example I-129]	> 10	≤ 0.01	
C[C@@H](CO)NC(=O)Cn1cc(Nc2nccc(NCc3c(Cl)cccc3Cl)n2)cn1 [Example I-3, (S)-2-(4-((4-((2,6-dichlorobenzyl)amino)pyrimidin-2-yl)amino)-1H-pyrazol-1-yl)-N-(1-hydroxypropan-2-yl)acetamide]	1 to 10	0.01 to 0.1	< 0.1
CC(C)(CF)NC(=O)Cn1cc(Nc2nccc(NCc3c(F)cc(F)cc3F)n2)cn1 [Example I-430]	1 to 10	0.01 to 0.1	
CN(Cc1cccc(CNc2nc(Nc3cnn(CCO)c3)ncc2Cl)c1)S(C)(=O)=O [Example I-398]	1 to 10	0.1 to 1	
O=C(Cn1cc(Nc2nccc(NCc3c(F)cc(F)cc3F)n2)cn1)N[C@H]1C[C@H]1F [Example I-454]	1 to 10	0.01 to 0.1	
CN(C)C(=O)Cn1cc(Nc2ncc(Cl)c(NCc3ccccc3)n2)cn1 [Example I-217]	1 to 10	0.1 to 1	
OCCn1cc(Nc2ncc(Cl)c(NCc3cc(F)cc(C(F)(F)F)c3)n2)cn1 [Example I-181]	1 to 10	0.1 to 1	
CN(C)C(=O)Cn1cc(Nc2ncc(F)c(NCc3cccc(OC(F)F)c3)n2)cn1 [Example I-14]	1 to 10	0.01 to 0.1	
CN1CCC(n2cc(Nc3ncc(Cl)c(NCc4ccccc4)n3)cn2)C1=O (stereo not shown) [Example I-253]	0.1 to 1	0.1 to 1	

Compound	IC50 [1] [µM]	IC50 [2, 3] [µM]	IC50 ([2]; read-out: TYK2 IC50) [µM]
CS(=O)(=O)c1ccccc1CNc1nc(Nc2cnn(CC(=O)N3CCOCC3)c2)ncc1Cl [Example I-453]	0.1 to 1	0.1 to 1	
COc1ccc(S(C)(=O)=O)cc1CNc1nc(Nc2cnn(CC(F)F)c2)ncc1F [Example I-480]	1 to 10	0.1 to 1	
Cc1ccc(F)c(CNc2ccnc(Nc3cnn(CC(=O)N[C@@H](C)CO)c3)n2)c1F [Example I-130]	1 to 10	0.01 to 0.1	
CS(=O)(=O)c1ccccc1CNc1nc(Nc2cnn(CCO)c2)ncc1F [Example I-435]	1 to 10	0.1 to 1	
CC(C)(C)OC(=O)N1CC2(CN(C(=O)Cn3cc(Nc4ncc(Cl)c(NCc5ccccc5)n4)cn3)C2)C1 [Example I-220]	1 to 10	0.1 to 1	
CS(=O)(=O)c1ccccc1CNc1nc(Nc2cnn(CCO)c2)ncc1Cl [Example I-266]	1 to 10	0.1 to 1	
[2H]C([2H])(O)C([2H])([2H])n1cc(Nc2ncc(Cl)c(NCc3cccc(OC)c3)n2)cn1 [Example I-235]	1 to 10	0.1 to 1	
CS(=O)(=O)NCc1cccc(CNc2nc(Nc3cnn(CCO)c3)ncc2Cl)c1 [Example I-417]	0.1 to 1	0.1 to 1	
CC(C)NC(=O)Cn1cc(Nc2nccc(NCc3c(Cl)ccc(F)c3F)n2)cn1 [Example I-93]	1 to 10	0.01 to 0.1	
O=C(Cn1cc(Nc2ncc(Cl)c(NCc3ccccc3)n2)cn1)N1CC2(COC2)C1 [Example I-236]	1 to 10	0.1 to 1	
CC(C)(C)OC(=O)N1CCN(C(=O)Cn2cc(Nc3ncc(Cl)c(NCc4ccccc4)n3)cn2)CC1 [Example I-207]	> 10	0.1 to 1	
CS(=O)(=O)c1ccc(F)c(CNc2nc(Nc3cn[nH]c3)ncc2F)c1 [Example I-114]	1 to 10	0.01 to 0.1	
Cc1cnc(Nc2cnn(CCO)c2)nc1NCc1c(F)cc(F)cc1F [Example I-303]	0.1 to 1	0.01 to 0.1	
CN(Cc1cccc(CNc2nc(Nc3cnn(CC(=O)N4CCOCC4)c3)ncc2Cl)c1)S(C)(=O)=O [Example I-401]	1 to 10	0.1 to 1	
CC(C)NC(=O)Cn1cc(Nc2nccc(NCc3c(F)cccc3Cl)n2)cn1 [Example I-77]	1 to 10	≤ 0.01	
COCCNC(=O)Cn1cc(Nc2ncc(Cl)c(NCc3ccccc3)n2)cn1 [Example I-273]	1 to 10	0.1 to 1	
Cn1cc(Cn2cc(Nc3ncc(Cl)c(NCc4c(F)cccc4F)n3)cn2)cn1 [Example I-482]	1 to 10	0.1 to 1	
O=C(Cn1cc(Nc2nccc(NCc3c(F)cccc3F)n2)cn1)NC1CC1 [Example I-152]	1 to 10	0.01 to 0.1	
Cc1cnc(Nc2cnn(CC(F)(F)F)c2)nc1NCc1cc(F)cc(F)c1 [Example I-350]	1 to 10	1 to 10	
N#Cc1cccc(CNc2nc(Nc3cnn(CC(=O)N4CCOCC4)c3)ncc2Cl)c1 [Example I-172]	0.1 to 1	0.01 to 0.1	

Results, then the compound that gave them:

IC50 [1] [µM]	IC50 [2, 3] [µM]	IC50 ([2]; read-out: TYK2 IC50) [µM]	Compound
0.1 to 1	0.1 to 1		N#Cc1c(F)cccc1CNc1nc(Nc2cnn(CC(N)=O)c2)ncc1Cl [Example I-286]
1 to 10	0.01 to 0.1		CNC(=O)Cn1cc(Nc2ncc(F)c(NCc3c(F)ccc(F)c3F)n2)cn1 [Example I-410]
0.1 to 1	0.1 to 1		CC(O)Cn1cc(Nc2ncc(Cl)c(NCc3cccc(F)c3F)n2)cn1 (stereo not shown) [Example I-215]
1 to 10	0.01 to 0.1		O=C(Cn1cc(Nc2ncc(F)c(NCc3c(F)cc(F)cc3F)n2)cn1)NC1CC1 [Example I-4, N-cyclopropyl-2-(4-((5-fluoro-4-((2,4,6-trifluorobenzyl)amino)pyrimidin-2-yl)amino)-1H-pyrazol-1-yl)acetamide]
1 to 10	0.01 to 0.1		CNC(=O)Cn1cc(Nc2ncc(Cl)c(NCc3cccc(C#N)c3)n2)cn1 [Example I-230]
0.1 to 1	0.1 to 1		Fc1cc(F)cc(CNc2nc(Nc3cnn(CC(F)F)c3)ncc2Cl)c1 [Example I-470]
0.01 to 0.1	0.01 to 0.1		Cc1cnc(Nc2cnn(C)c2)nc1NCc1cc(F)cc(F)c1F [Example I-342]
0.1 to 1	≤ 0.01		CN(C)C(=O)Cn1cc(Nc2ncc(Cl)c(NCc3c(F)ccc(F)c3F)n2)cn1 [Example I-360]
1 to 10	0.01 to 0.1		NC(=O)Cn1cc(Nc2ncc(F)c(NCc3c(Cl)cccc3Cl)n2)cn1 [Example I-328]
0.1 to 1	0.01 to 0.1		OCCn1cc(Nc2ncc(Cl)c(NCc3ccccc3F)n2)cn1 [Example I-174]
0.1 to 1	0.01 to 0.1		CC(C)NC(=O)Cn1cc(Nc2ncc(F)c(NCc3c(Cl)ccc(Cl)c3F)n2)cn1 [Example I-82]
1 to 10	0.01 to 0.1		CC(C)NC(=O)Cn1cc(Nc2nccc(NCc3c(F)cc(F)cc3Cl)n2)cn1 [Example I-94]
1 to 10	0.01 to 0.1		Cc1cnc(Nc2cnn(CC(=O)NC3CCC3)c2)nc1NCc1c(F)cc(F)cc1F [Example I-33]
0.1 to 1	0.1 to 1		CS(=O)(=O)c1ccccc1CNc1nc(Nc2cnn(CC(N)=O)c2)ncc1Cl [Example I-450]
1 to 10	0.01 to 0.1		COc1ccc(F)c(CNc2nc(Nc3cnn(CC(=O)O)c3)ncc2Cl)c1F [Example I-295]
1 to 10	0.01 to 0.1		COc1ccc(F)c(CNc2nc(Nc3cnn(CC(=O)NCC(C)C)c3)ncc2Cl)c1F [Example I-428]
1 to 10	0.01 to 0.1		Cn1cc(Nc2ncc(Cl)c(NCc3c(F)cc(F)cc3F)n2)cn1 [Example I-385]
0.1 to 1	0.1 to 1		Fc1cc(F)c(F)c(CNc2nc(Nc3cnn(CC(F)F)c3)ncc2Cl)c1 [Example I-468]
1 to 10	0.01 to 0.1		NC(=O)Cn1cc(Nc2ncc(Cl)c(NCc3c(F)cccc3F)n2)cn1 [Example I-240]
0.1 to 1	0.01 to 0.1		CS(=O)(=O)c1ccc(F)cc1CNc1nc(Nc2cnn(CC(N)=O)c2)ncc1F [Example I-489]
0.1 to 1	0.1 to 1		Cn1cc(Nc2ncc(Cl)c(NCc3cccc(F)c3F)n2)cn1 [Example I-179]
0.1 to 1	0.01 to 0.1		COc1ccc(F)c(CNc2nc(Nc3cnn(CCO)c3)ncc2Cl)c1F [Example I-320]
0.1 to 1	0.1 to 1		CNC(=O)Cn1cc(Nc2ncc(Cl)c(NCc3cc(Br)cc(F)c3F)n2)cn1 [Example I-262]
